The values below come from patent US8227480B2, “Indazole derivative having spiro ring structure in side chain” (Ube Industries, Ltd., priority 2006, dated 2012).

Structures can show the parent of a compound that is named as a salt.

One series has as its target T1, activated ROCK-II (Rattus norvegicus, UniProt Q62868).
T1 construct: purchased Upstate Biotechnology 14-338
The series can be described thus: Test for Evaluation of Rho Kinase Inhibitory Activity. Format: biochemical. Conditions: Ki=IC50/(1+S/Km); [γ-32P]ATP, S6 kinase substrate peptide, 30° C. for 15 minutes. How it is done: In order to find the usefulness of the present invention compound, a Rho kinase inhibitory activity of the present invention compound was evaluated and studied. The details of the evaluation and study will be illustrated in the “section of Pharmacological Test (Test for Evaluation of Rho Kinase Inhibitory Activity)” in the Examples which will be mentioned later. The evaluation and study of the Rho kinase inhibitory activity of the present invention compound were carried out in accordance with the method described in J. Biol. Chem., 274, 32418 (1999) and the method described in the instruction manual for use attached to the commercially available activated ROCK-II [Upstate Biotechnology, Catalog No. 14-338 (5 units/50 μl)].
In order to study the usefulness of the present invention compound as a Rho kinase inhibitor, in accordance with the method described in J. Biol. Chem., 274, 32418 (1999) and the method described in the instruction manual for use attached to the commercially available activated ROCK-II [Upstate Biotechnology, Catalog No. 14-338 (5 units/50 μl)], the Rho kinase inhibitory activity of the present invention compound was evaluated and studied. As a test compound, Example compound 2 was used. […]
7) The filter paper is dipped in ethanol and then dried. Thereafter, the amount of phosphorylated substrate is measured using a liquid scintillation counter. […]

In another series the test system is cynomolgus monkeys. Nature of the series: Test for Measurement of Intraocular Pressure-Reducing Activity. The class given is in vivo. Conditions: male cynomolgus monkeys, 0.1% test compound solution instilled into one eye, measured at 2, 4 and 6 hours after instillation, versus vehicle control. An excerpt: Further, in order to verify the application of the present invention compound to a specific disease associated with Rho kinase, the intraocular pressure-reducing activity of the present invention compound was also studied. The details of the study will be illustrated in the “section of Pharmacological Test (Test for Measurement of Intraocular Pressure-Reducing Activity)” in the Examples which will be mentioned later.
In order to study the usefulness of the present invention compound as a therapeutic agent for glaucoma, an intraocular pressure-reducing effect in the case where the present invention compound was administered to cynomolgus monkeys (sex: male; one group consisting of 4 to 5 monkeys) was evaluated and studied. As a test compound, Example compound 2 (hereinafter referred to as the test compound) was used. […]
2) The intraocular pressure was measured immediately before administration of the test compound solution, which was defined as the initial intraocular pressure. […]
4) At 2, 4 and 6 hours after instillation of the test compound solution, one drop of a 0.4% oxybuprocaine hydrochloride eye drop was instilled into both eyes to achieve local anesthesia and then the intraocular pressure was measured. Measurement of the intraocular pressure for each time was carried out three times and a mean value thereof was calculated. […]

The term melting point denotes the temperature, or range, at which the solid turns liquid. What is called Ki is the equilibrium dissociation constant of an inhibitor or competing ligand from its target. Read a low Ki as higher affinity.

T1 sequence (Q62868 11-552 limits assumed): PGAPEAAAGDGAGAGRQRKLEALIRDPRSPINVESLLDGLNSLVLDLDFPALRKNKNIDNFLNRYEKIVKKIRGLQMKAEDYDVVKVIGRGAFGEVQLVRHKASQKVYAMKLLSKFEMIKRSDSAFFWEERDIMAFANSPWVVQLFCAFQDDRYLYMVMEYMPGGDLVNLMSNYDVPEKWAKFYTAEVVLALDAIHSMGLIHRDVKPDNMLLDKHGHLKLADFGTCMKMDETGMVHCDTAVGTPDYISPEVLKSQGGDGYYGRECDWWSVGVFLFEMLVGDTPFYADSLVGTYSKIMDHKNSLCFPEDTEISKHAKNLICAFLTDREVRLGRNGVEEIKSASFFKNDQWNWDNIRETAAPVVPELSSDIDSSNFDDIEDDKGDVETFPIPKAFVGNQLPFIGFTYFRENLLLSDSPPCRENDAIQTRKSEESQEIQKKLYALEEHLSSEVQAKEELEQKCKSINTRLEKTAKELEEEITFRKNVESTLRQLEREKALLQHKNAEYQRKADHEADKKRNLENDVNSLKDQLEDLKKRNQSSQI

For the compound `NC1(c2ccc(-c3ccc4[nH]ncc4c3C3CC3)nc2)CC2(CC2)C1` (as salt: hydrochloride) [Example compound 2, 5-{5-(5-amino-spiro[2,3]hex-5-yl)pyridin-2-yl}}-4-cyclopropyl-1H-indazole Dihydrochloride], the melting point was > 300 °C (dec.).
In turn, `CC(C)(C)OC(=O)NC1(c2ccc(-c3ccc4c(cnn4C4CCCCO4)c3C3CC3)nc2)CC2(CC2)C1` (stereo not shown) [Example compound 1] displayed a melting point of 199 to 202 °C.
As for `NC1(c2ccc(-c3ccc4[nH]ncc4c3C3CC3)nc2)CC2(CC2)C1` [Example compound 2, 5-{5-(5-amino-spiro[2,3]hex-5-yl)pyridin-2-yl}}-4-cyclopropyl-1H-indazole Dihydrochloride], the affinity on activated ROCK-II, expressed as Ki, was 3.5 nM. Moreover, in the series on cynomolgus monkeys, the “intraocular pressure-reducing activity (change from the initial intraocular pressure, FIG. 1)” value is listed as “excellent intraocular pressure-reducing activity”.
